According to US6297043A, “Mumbaistatin, a process for it's production and its use as a pharmaceutical” (Aventis Pharma Deutschland GmbH, priority 1998, dated 2001):

Assays:
[1] = biological target: T1, rat liver microsomal glucose-6-phosphate translocase (Rattus norvegicus, UniProt F7EWB7); experiment: inhibition of rat liver microsomal glucose-6-phosphate translocase activity; format: biochemical
T1 construct: rat liver microsomal glucose-6-phosphate translocase; from tissue; host or cells: rat liver microsomes
T1 sequence (F7EWB7 1-429): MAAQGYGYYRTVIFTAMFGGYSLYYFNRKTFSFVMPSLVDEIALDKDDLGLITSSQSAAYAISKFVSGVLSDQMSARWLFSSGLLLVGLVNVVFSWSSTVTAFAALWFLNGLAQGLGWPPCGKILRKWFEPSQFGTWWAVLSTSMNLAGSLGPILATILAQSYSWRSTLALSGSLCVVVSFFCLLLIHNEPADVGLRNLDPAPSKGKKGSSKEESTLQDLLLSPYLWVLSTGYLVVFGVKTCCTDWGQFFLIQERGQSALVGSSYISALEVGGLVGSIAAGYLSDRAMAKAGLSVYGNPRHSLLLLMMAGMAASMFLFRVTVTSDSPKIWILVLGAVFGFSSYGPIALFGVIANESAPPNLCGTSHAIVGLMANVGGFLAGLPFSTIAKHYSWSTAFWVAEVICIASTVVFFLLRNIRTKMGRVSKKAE
Source text: (§1) If desired, DESMOPHEN® (polypropylene oxide) may be used as an antifoam agent in the fermenters. […] In the resulting culture broth, Mumbaistatin is present primarily in the culture filtrate and can thus be recovered by extraction of the culture filtrate with a water immiscible solvent such as, for example, ethyl acetate, dichloromethane, chloroform or butanol at pH 5-8, or by hydrophobic interaction chromatography using polymeric resins such as DIAION® HP-20 (Mitsubishi Chemical Industries Limited, Japan), AMBERLITE® XAD (Rohm and Haas Industries, U.S.A.), or activated charcoal, or by ion exchange chromatography at pH 5-8.
(§2) The production of Mumbaistatin was monitored by measuring the inhibition of glucose-6-phosphate translocase.
(§3) The production of the compound was monitored by measuring the inhibition of glucose-6-phosphate translocase.

[2] = system: rat liver microsomal glucose-6-phosphate translocase; experiment: as above; format: biochemical; details: translocase versus phosphatase activity
Source text: as §1, §2, §3

[3] = system: fructose-induced gluconeogenesis; experiment: glucose output of isolated rat hepatocytes: fructose-induced gluconeogenesis; format: cell-based
Procedure: (§4) Mumbaistatin was further evaluated in isolated rat hepatocytes for its effect on glucose output. It inhibits both fructose-induced gluconeogenesis and glucagon-induced glycogenolysis with IC50 values of about 0.3 μM and 0.6 μM, respectively.

[4] = system: glucagon-induced glycogenolysis; experiment: glucose output of isolated rat hepatocytes: glucagon-induced glycogenolysis; format: cell-based
Procedure: as §4

[5] = system: phosphate/pyrophosphate translocase; experiment: effect on activity of phosphate/pyrophosphate translocase; format: biochemical

- mode of inhibition of glucose-6-phosphate translocase [1]: reversible and competitive inhibitor
- IC50 ([1]; rat liver microsomal): ~0.025 µM
- inhibition of glucose-6-phosphate translocase ([1]; rat liver microsomal): potently inhibits
- effect on activity of phosphate/pyrophosphate translocase [5]: did not affect
Substance: Mumbaistatin
- specificity for translocase over phosphatase [2]: high degree of specificity for translocase
- IC50 [3]: ~0.3 µM
- IC50 [4]: ~0.6 µM
